Reference: patent publication US10781224B2, “Bis(oxymethyl)phosphinic acid and biogenic metal salts thereof as regulators of plant growth and development” (priority 2016, dated 2020)

Assays:
Type in all cases: in vivo
[1] = system: winter wheat (Vershin variety); assay: Winter wheat seed treatment with BHMPA salts: germination energy and germination rate
How it was run: (§1)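 Corn, winter wheat and rice seeds (50 per dish, on filter paper) were soaked for 1 h in BHMPA or its metal salts at 1·10^−6-1·10^−12%, with water as control. Germination energy was read on day 4 and germination rate on day 8 for wheat and day 7 for rice and corn, following GOST 12038-84, as the mean of four replicates.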

[2] = system: corn (Krasnodar 385 MV variety); assay: Corn seed treatment with BHMPA salts: germinating power
How it was run: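 Seeds (50 per Petri dish on two layers of filter paper) soaked 1 h in BHMPA or its Ca, Mg, Na, Co, Mn, Cu or Zn salts at 1·10^−6-1·10^−12%, with water controls. Germination energy read on day 4, germination on day 8 (wheat) or day 7 (rice, corn), as % means of four replicates. Germinating power taken as root and sprout length plus wet and dry mass per 100 seedlings.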

[3] = system: rice (Diamant variety); assay: Rice seed treatment with BHMPA salts: germination energy and germination rate
How it was run: as §1

[4] = winter wheat Vershin, 1·10^−6% solution
[5] = winter wheat Vershin, 1·10^−7% solution
[6] = winter wheat Vershin, 1·10^−8% solution
[7] = winter wheat Vershin, 1·10^−9% solution
[8] = winter wheat Vershin, 1·10^−10% solution
[9] = winter wheat Vershin, 1·10^−11% solution
[10] = winter wheat Vershin, 1·10^−12% solution
[11] = winter wheat, comparative study vs Melaphen, 1·10^−9% solution
[12] = corn seeds, solution concentration 1 · 10^−6%, manganese salt of BHMPA
[13] = corn seeds, solution concentration 1 · 10^−7%, manganese salt of BHMPA
[14] = corn seeds, solution concentration 1 · 10^−8%, manganese salt of BHMPA
[15] = corn seeds, solution concentration 1 · 10^−9%, manganese salt of BHMPA
[16] = corn seeds, solution concentration 1 · 10^−10%, manganese salt of BHMPA
[17] = corn seeds, solution concentration 1 · 10^−11%, manganese salt of BHMPA
[18] = corn seeds, solution concentration 1 · 10^−12%, manganese salt of BHMPA
[19] = rice seed treatment, solution 1 · 10^−9%
[20] = seed treatment, concentration 1 · 10^−6%
[21] = seed treatment, concentration 1 · 10^−7%
[22] = seed treatment, concentration 1 · 10^−8%
[23] = seed treatment, concentration 1 · 10^−9%
[24] = seed treatment, concentration 1 · 10^−10%
[25] = seed treatment, concentration 1 · 10^−11%
[26] = seed treatment, concentration 1 · 10^−12%

O.O.O=P([O-])(CO)CO.O=P([O-])(CO)CO.[Mn+2] [Mn-salt, Manganese BHMPA Salt]
Germination energy [1, 4]: 72.0% | Germination rate [1, 4]: 69.3% | Germination energy [1, 5]: 73.6% | Germination rate [1, 5]: 76.0% | Germination energy [1, 6]: 77.9% | Germination rate [1, 6]: 82.7% | Germination energy [1, 7]: 85.5% | Germination rate [1, 7]: 88.7% | Germination energy [1, 8]: 83.0% | Germination rate [1, 8]: 85.3% | Germination energy [1, 9]: 76.1% | Germination rate [1, 9]: 78.8% | Germination energy [1, 10]: 71.6% | Germination rate [1, 10]: 74.0% | Germination energy [1, 11]: 88.0% | Germination rate [1, 11]: 93.7% | optimum concentration for treating corn seeds before sowing ([2]; corn): 1·10^−9% | Length, root [2, 12]: 4.6 cm | Length, root, + % to control [2, 12]: −4% | Length, sprout [2, 12]: 2.8 cm | Length, sprout, + % to control [2, 12]: −18% | Mass, dry, root [2, 12]: 1.47 g/100 plantlings | Mass, dry, root, + % to control [2, 12]: 6% | Mass, dry, sprout [2, 12]: 0.83 g/100 plantlings | Mass, dry, sprout, + % to control [2, 12]: 5% | Mass, wet, root [2, 12]: 9.87 g/100 plantlings | Mass, wet, root, + % to control [2, 12]: 12% | Mass, wet, sprout [2, 12]: 5.92 g/100 plantlings | Mass, wet, sprout, + % to control [2, 12]: 0% | Length, root [2, 13]: 5.0 cm | Length, root, + % to control [2, 13]: 4% | Length, sprout [2, 13]: 3.1 cm | Length, sprout, + % to control [2, 13]: −9% | Mass, dry, root [2, 13]: 1.55 g/100 plantlings | Mass, dry, root, + % to control [2, 13]: 11.5% | Mass, dry, sprout [2, 13]: 0.89 g/100 plantlings | Mass, dry, sprout, + % to control [2, 13]: 13% | Mass, wet, root [2, 13]: 10.61 g/100 plantlings | Mass, wet, root, + % to control [2, 13]: 20% | Mass, wet, sprout [2, 13]: 6.63 g/100 plantlings | Mass, wet, sprout, + % to control [2, 13]: 12% | Length, root [2, 14]: 5.4 cm | Length, root, + % to control [2, 14]: 12.5% | Length, sprout [2, 14]: 3.6 cm | Length, sprout, + % to control [2, 14]: 6% | Mass, dry, root [2, 14]: 1.69 g/100 plantlings | Mass, dry, root, + % to control [2, 14]: 21.5% | Mass, dry, sprout [2, 14]: 1.05 g/100 plantlings | Mass, dry, sprout, + % to control [2, 14]: 33% | Mass, wet, root [2, 14]: 11.92 g/100 plantlings | Mass, wet, root, + % to control [2, 14]: 35% | Mass, wet, sprout [2, 14]: 7.03 g/100 plantlings | Mass, wet, sprout, + % to control [2, 14]: 19% | Length, root [2, 15]: 5.8 cm | Length, root, + % to control [2, 15]: 21% | Length, sprout [2, 15]: 3.9 cm | Length, sprout, + % to control [2, 15]: 15% | Mass, dry, root [2, 15]: 1.82 g/100 plantlings | Mass, dry, root, + % to control [2, 15]: 31% | Mass, dry, sprout [2, 15]: 1.25 g/100 plantlings | Mass, wet, root [2, 15]: 12.62 g/100 plantlings | Mass, wet, root, + % to control [2, 15]: 43% | Mass, wet, sprout [2, 15]: 7.69 g/100 plantlings | Mass, wet, sprout, + % to control [2, 15]: 30% | Length, root [2, 16]: 5.5 cm | Length, root, + % to control [2, 16]: 14.5% | Length, sprout [2, 16]: 3.7 cm | Length, sprout, + % to control [2, 16]: 9% | Mass, dry, root [2, 16]: 1.72 g/100 plantlings | Mass, dry, root, + % to control [2, 16]: 24% | Mass, dry, sprout [2, 16]: 1.17 g/100 plantlings | Mass, dry, sprout, + % to control [2, 16]: 48% | Mass, wet, root [2, 16]: 12.06 g/100 plantlings | Mass, wet, root, + % to control [2, 16]: 36.5% | Mass, wet, sprout [2, 16]: 7.29 g/100 plantlings | Mass, wet, sprout, + % to control [2, 16]: 23.5% | Length, root [2, 17]: 5.3 cm | Length, root, + % to control [2, 17]: 10% | Length, sprout [2, 17]: 3.4 cm | Length, sprout, + % to control [2, 17]: 0% | Mass, dry, root [2, 17]: 1.61 g/100 plantlings | Mass, dry, root, + % to control [2, 17]: 16% | Mass, dry, sprout [2, 17]: 0.92 g/100 plantlings | Mass, dry, sprout, + % to control [2, 17]: 16% | Mass, wet, root [2, 17]: 11.78 g/100 plantlings | Mass, wet, root, + % to control [2, 17]: 33% | Mass, wet, sprout [2, 17]: 6.91 g/100 plantlings | Mass, wet, sprout, + % to control [2, 17]: 17% | Length, root [2, 18]: 4.9 cm | Length, root, + % to control [2, 18]: 2% | Length, sprout [2, 18]: 2.9 cm | Length, sprout, + % to control [2, 18]: −15% | Mass, dry, root [2, 18]: 1.47 g/100 plantlings | Mass, dry, root, + % to control [2, 18]: 6% | Mass, dry, sprout [2, 18]: 0.79 g/100 plantlings | Mass, dry, sprout, + % to control [2, 18]: 0% | Mass, wet, root [2, 18]: 10.88 g/100 plantlings | Mass, wet, root, + % to control [2, 18]: 23% | Mass, wet, sprout [2, 18]: 6.28 g/100 plantlings | Mass, wet, sprout, + % to control [2, 18]: 6% | effectiveness on germinating power ([2]; corn, 1·10^−6%, 1·10^−7%, 1·10^−11% and 1·10^−12% solutions): ineffective | Length, root, + % to control ([2]; corn, 1·10^−9% solution): 21% | Length, sprout, + % to control ([2]; corn, 1·10^−9% solution): 15% | Mass, dry, root, + % to control ([2]; corn, 1·10^−9% solution): 31% | Mass, dry, sprout, + % to control ([2]; corn, 1·10^−9% solution): 58% | Mass, wet, root, + % to control ([2]; corn, 1·10^−9% solution): 43% | Mass, wet, sprout, + % to control ([2]; corn, 1·10^−9% solution): 30% | Germination energy, % [3, 19]: 86.7% | Germination rate, % [3, 19]: 93.0% | Germination energy ([3]; rice, 1·10^−9% solution): 85.3% | Germination rate ([3]; rice, 1·10^−9% solution): 91.7% | Germination energy [3, 20]: 77.0% | Germination rate [3, 20]: 82.7% | Germination energy [3, 21]: 79.3% | Germination rate [3, 21]: 85.0% | Germination energy [3, 22]: 82.7% | Germination rate [3, 22]: 86.7% | Germination energy [3, 23]: 85.3% | Germination rate [3, 23]: 91.7% | Germination energy [3, 24]: 83.3% | Germination rate [3, 24]: 88.3% | Germination energy [3, 25]: 81.0% | Germination rate [3, 25]: 86.0% | Germination energy [3, 26]: 78.0% | Germination rate [3, 26]: 83.0%
